Experimental data as given in patent US9597391B2, “Cyclic-dinucleotides and its conjugates as adjuvants and their uses in pharmaceutical compositions” (HELMHOLTZ_ZENTRUM FUER INFEKTIONSFORSCHUNG GMBH, priority 2005, dated 2017).

Assays:
BALB/c (H-2d) mice [1] = assay: Serum β-gal-specific IgG ELISA after i.n. or s.c. immunization with β-gal plus adjuvant; format: in vivo; settings: for β-gal specific IgG titer in sera, i.n. administration: β-gal 30 μg/dose with or without adjuvant 10 μg, end point titers (FIG. 11; FIG. 2)
Description: Experimental protocol: six-eight weeks-old female BALB/c (H-2d) mice were purchased from Harlan Winkelmann GmbH (Borchen, Germany) and treated in accordance with local and European Community guidelines. Groups of 5 mice each were immunized on day 1, 14 and 28 with 30 μg of β-gal (Boehringer, Mannheim, Germany), alone or as an admixture with 10 μg c-diGMP or with 10 μpg c-diAMP. For intranasal (i.n.) immunization, 10 μl were applied to each naris, whereas for the s.c. injection β-gal with or without c-diGMP or c-diAMP was resuspended in a volume of 20 μl PBS per animal. Serum samples were collected at day 38 after immunization and stored at −20° C. prior to determination of β-gal-specific antibodies. 96-well Nunc-Immuno MaxiSorp assay plates (Nunc, Roskilde, Denmark) were coated with 100 μl of β-gal (Boehringer, Mannheim, Germany) at 5 μg/ml in 0.05 M carbonate buffer (pH 8.2) per well. Serial two-fold dilutions of sera in PBS with 1% BSA and 0.05% Tween 20 were added (100 μl/well), and plates incubated for 16h at 37° C. After washing, biotinylated γ-chain-specific goat anti-mouse IgG (Sigma Chemie, Deisenhofen, Germany) was added, and plates were incubated for an additional 1 h at 37° C. After four washes, 100 μl of peroxidase-conjugated streptavidin (Pharmingen) was added to cells and plates incubated at 37° C. for 30 min. After four washes, reactions were developed with ABTS in 0.1 M citrate-phosphate buffer (pH 4.35) containing 0.01% H2O2. Results for c-diGMP are shown as OD405 values after serial two-fold dilutions (FIG. 2). […] The effect of c-diGMP as an adjuvant was independent of the route of administration.
In contrast, in the presence of c-diAMP, i.n. administration of β-gal induced very high titers of specific IgG in all mice with titers higher than 500,000 (FIG. 11).
In view of the above in vitro results, additional in vivo studies have been conducted. […] Thus, the capacity of c-diGMP and c-diAMP, respectively, to stimulate efficient humoral immune responses was evaluated, by determining the serum titers of β-gal-specific antibodies in vaccinated mice.

BALB/c (H-2d) mice [2] = assay: Isotype ELISA of β-gal-specific IgG1 and IgG2a in sera of vaccinated mice; format: in vivo
Description: Isotyp ELISA: 96-well Nunc-Immuno MaxiSorp assay plates (Nunc, Roskilde, Denmark) were coated with 100 μl of β-gal (Boehringer, Mannheim, Germany) at 5 μg/ml in 0.05 M carbonate buffer (pH 9,6) per well. Serial two-fold dilutions of sera or lavages in PBS with 1% BSA and 0.05% Tween 20 were added (100 μl/well), and plates incubated for 2 h at 37° C. After washing, biotin-conjugated rat anti-mouse IgG1 or IgG2a (Pharmingen, Hamburg, Germany) were added to determine IgG subclasses. Plates were incubated for an additional 1 h at 37° C. After four washes, 100 μl of peroxidase-conjugated streptavidin (Pharmingen) was added to cells and plates incubated at 37° C. for 30 min. After four washes, reactions were developed with ABTS in 0.1 M citrate-phosphate buffer (pH 4.35) containing 0.01% H2O2. To determine the concentration of IgG subclasses in serum, standard curves were obtained by coating the wells with an isotype-specific goat anti-mouse IgG, and then by incubating with purified mouse IgG1 or IgG2 antibodies (Dianova, Hamburg, Germany).
The pattern of the different subclasses of the β-gal antigen-specific IgG isotypes present in the sera of vaccinated mice is shown in FIG. 12. […] The protocol for vaccination was identical to the protocol described in Example 3. […] The data represents the average titer of a group of 5 animals.

[3] = tested on: primary bone marrow-derived murine dendritic cells; assay: In vitro stimulation of primary bone marrow-derived murine dendritic cells, flow cytometry of surface markers; format: cell-based, BALB/c mice; settings: 10 ng/ml c-diGMP, flow cytometry after 12 h and 24 h, versus no stimulus (FIG. 1)
Description: Experimental protocol: primary bone marrow-derived dendritic cell cultures were obtained from BALB/c mice following in vitro maturation of precursors in the presence of recombinant GM-CSF (5×104 U/ml), according to established protocols, e.g. Link, C., etal, 2004, Eur. J. Immuol, 34(3):899-907. Mature dendritic cells were stimulated with 10 ng/ml of E. coli lypopolysaccharide (LPS) or 10 ng/ml c-diGMP. The stimulation of cells was analyzed by flow cytometry to assess the expression of surface markers which are relevant for their antigen presentation capacity after 12 h and 24 h, respectively.
In order to identify compounds which may have potential as adjuvants for in vivo applications in the field of vaccines, a first in vitro screening based on the use of primary cultures of bone marrow-derived dendritic cells was established. Dendritic cells were selected since they represent the most efficient antigen presenting cells and they play a key role in primary immune responses. In fact, they represent the only cell type able to activate resting T cells initiating primary immune responses in vivo. […] At different time intervals, samples were taken, stained with fluorescent-labeled antibodies specific for cellular markers critical for the antigen presenting capacities of dendritic cells, and analyzed by flow cytometry.

[4] = i.n., average titer of 5 animals (FIG. 12A)
[5] = s.c., average titer of 5 animals (FIG. 12B)

SMILES | β-gal specific IgG titer in sera, i.n. administration (BALB/c (H-2d) mice [1]) | β-gal specific IgG1 in sera, intranasal (BALB/c (H-2d) mice [2]; [4]) | β-gal specific IgG2a in sera, intranasal (BALB/c (H-2d) mice [2]; [4]) | β-gal specific IgG1 in sera, subcutaneous (BALB/c (H-2d) mice [2]; [5]) | β-gal specific IgG2a in sera, subcutaneous (BALB/c (H-2d) mice [2]; [5]) | expression of CD40 on dendritic cells [3] | β-gal specific IgG titer in sera (BALB/c (H-2d) mice [1]; 30 μg β-gal + 10 μg adjuvant, day 1, 14, 28, serum day 38, independent of route (i.n., s.c.), FIG. 2, FIG. 3)
Nc1ncnc2c1ncn2[C@@H]1O[C@@H]2COP(=O)(O)O[C@H]3[C@@H](O)[C@H](n4cnc5c(N)ncnc54)O[C@@H]3COP(=O)(O)O[C@H]2[C@H]1O [c-diAMP, cyclic bis(3′-5′)diadenylic acid] | higher than 500,000 | strongly increased | strongly increased | strongly increased | strongly increased |  | 
Nc1nc2c(ncn2[C@@H]2O[C@@H]3COP(=O)(O)O[C@H]4[C@@H](O)[C@H](n5cnc6c(=O)[nH]c(N)nc65)O[C@@H]4COP(=O)(O)O[C@H]3[C@H]2O)c(=O)[nH]1 [c-diGMP, cyclic bis(3′-5′)diguanylic acid] | increased expression |  |  |  |  | up-regulated | remarkably increased
